Like-named read-outs stand apart in the source and are kept apart here.
Key:
Type in all cases: cell-based, rat
[1] = system: N27 cells; assay: Cytotoxicity (LDH) assay after PFF exposure
Protocol: (§1) Cytotoxicity Assay. The lactate dehydrogenase (LDH) is a cytosolic enzyme that is released into the media during cellular stress and increased levels of cytotoxicity. The cytotoxicity assay was measured using reagents from the Pierce LDH Cytotoxicity Assay Kit (88954, Thermo). For the assay, 50 μL of media from each well after PFF exposure, followed by SENP-1 treatment, was put into wells of a new 96-well plate. The LDH reagents were prepared according to the protocol provided, and 50 μL of the LDH reagent was mixed into each well. The total 100 μL of media containing LDH and its reagent were incubated at 37° C. for 30 min, followed by the application of a stop solution. The mixture was analyzed using a spectrophotometer (SpectraMax M5e, Molecular devices) at 490 nm with a reference wavelength of 680 nm.
In this study, numerous commercially available SENP-1 inhibitors were tested for the recovery effects from preformed fibrils of alpha-synuclein (PFF)-induced PD models in vitro. The screening process includes several SENP-1 inhibitors, including specific SENP-1 inhibitors (e.g., SUMO-2 Aldehyde, Momordin lc, streptonigrin, hinokiflavonem, and siRNAs of SENP-1) and nonspecific SENP-1 inhibitors (e.g., oleanolic acid, gallic acid), in N27 dopaminergic cells after the exposure of PFF for 24 hrs.

[2] = system: N27 dopaminergic cells; assay: Screening of SENP-1 inhibitors (LDH, MTT, ROS, Thioflavin-T) in PFF-induced PD model in vitro; conditions: N27 dopaminergic cells after exposure to PFF for 24 hrs
Text: (§2) Cell Viability Assay. The MTT assay is a colorimetric assay that is based on the conversion of water-soluble MTT (3-(4,5-dimethylthiazol-2-yl)-2,5-diphenyltetrazolium bromide) into formazan crystal by mitochondrial dehydrogenase enzymes, soluble in 100% DMSO. The resulting solution is purple in color, and the color intensity is proportional to the viable cells for each well in a 96-well plate. A variety of SENP-1 inhibitors, such as SUMO-2 aldehyde, Momordin lc, streptonigrin, hinokiflavone, oleanolic acid and siRNA of SENP-1, were treated in N27 cells after PFF (1 μg/ml) exposure for 24 h. After adding 5 mM MTT dye to cells, the color intensity in MTT assays was measured using a spectrophotometer (SpectraMax M5e, Molecular devices, Dover, USA), at 570 nm with a reference wavelength of 630 nm. The cells were incubated with the MTT reagent (ab211091, Abcam) at 37° C. for 3 h, followed by solubilizing the formazan crystals in solution.
as §1
ROS Levels and Thioflavin-T Assessment. The reactive oxygen species (ROS) is a released byproduct during oxidative stress. On the other hand, thioflavin-T is an assay used to understand the level of protein aggregation that can be detrimental to cell survival. In order to assess the level of oxidative stress, all the SENP-1 inhibitors treated cells were incubated in media containing 5 μg/mL of the ROS reagent CellROX deep red reagent (C10422, Thermo Fisher Scientific) and 25 μg/mL of thioflavin-T reagent (CAS: 2390-54-7, Acros Organics) at 37° C. for 30 min. The cells were then washed 3 times with warm phosphate-buffered saline (PBS) without Ca^2+ or Mg^2+ (137 mM NaCl, 2.7 mM KCl, 4.3 mM Na2HPO4, and 1.47 mM KH2PO4), and several images from each well were collected using EVOS FL Cell Imaging Systems (Invitrogen, MA, USA). […] The intensity of red fluorescence corresponding to ROS levels and green labels corresponding to protein aggregation was analyzed by blinded raters using ImageJ. […]

[3] = system: N27 cells; assay: ROS level (CellROX deep red) after PFF treatment; conditions: compared to PFF only control
Protocol: ROS Levels and Thioflavin-T Assessment. The reactive oxygen species (ROS) is a released byproduct during oxidative stress. On the other hand, thioflavin-T is an assay used to understand the level of protein aggregation that can be detrimental to cell survival. In order to assess the level of oxidative stress, all the SENP-1 inhibitors treated cells were incubated in media containing 5 μg/mL of the ROS reagent CellROX deep red reagent (C10422, Thermo Fisher Scientific) and 25 μg/mL of thioflavin-T reagent (CAS: 2390-54-7, Acros Organics) at 37° C. for 30 min. The cells were then washed 3 times with warm phosphate-buffered saline (PBS) without Ca^2+ or Mg^2+ (137 mM NaCl, 2.7 mM KCl, 4.3 mM Na2HPO4, and 1.47 mM KH2PO4), and several images from each well were collected using EVOS FL Cell Imaging Systems (Invitrogen, MA, USA). A minimum of 2 wells were dedicated to each group, and the experiments were repeated 3-4 times independently (total replicated: n=8-10/group). The intensity of red fluorescence corresponding to ROS levels and green labels corresponding to protein aggregation was analyzed by blinded raters using ImageJ.

[4] = system: N27 cells; assay: Cell viability (MTT) assay after PFF exposure; conditions: N27 cells after PFF (1 μg/ml) exposure for 24 h; compared to PFF only control
Text: as §2
In this study, numerous commercially available SENP-1 inhibitors were tested for the recovery effects from preformed fibrils of alpha-synuclein (PFF)-induced PD models in vitro. […]

O=c1cc(-c2ccc(Oc3c(O)cc4oc(-c5ccc(O)cc5)cc(=O)c4c3O)cc2)oc2cc(O)cc(O)c12 [Hinokiflavone, hinokiflavone]
cytotoxicity derived from PFF (LDH assay) [1]: significantly reduced the cytotoxicity

O=C(O)c1cc(O)c(O)c(O)c1 [gallic acid]
efficacy in preventing protein aggregation-mediated damage and reversing PFF-induced damage (LDH, MTT, ROS, Thioflavin-T assays) [2]: did not show an efficacy

COC1=C(N)C(=O)c2nc(-c3nc(C(=O)O)c(C)c(-c4ccc(OC)c(OC)c4O)c3N)ccc2C1=O [Streptonigrin, streptonigrin]
cytotoxicity derived from PFF (LDH assay) ([1]; N27 cells, PFF treatment, compared to PFF only control): significantly reduced the cytotoxicity | efficacy in preventing protein aggregation-mediated damage and reversing PFF-induced damage (LDH, MTT, ROS, Thioflavin-T assays) [2]: clearly efficacious | level of ROS [3]: reduced the level of ROS | cell viability from PFF-mediated toxicity (MTT assay) [4]: significantly enhanced the cell viability

CC1(C)CC[C@]2(C(=O)O)CC[C@]3(C)C(=CC[C@@H]4[C@@]5(C)CC[C@H](O)C(C)(C)[C@@H]5CC[C@]43C)[C@@H]2C1 [oleanolic acid]
efficacy in preventing protein aggregation-mediated damage and reversing PFF-induced damage (LDH, MTT, ROS, Thioflavin-T assays) [2]: did not show an efficacy

From patent US20260021167A1, “COMPOSITIONS AND METHODS FOR TREATING OR PREVENTING NEURODEGENERATIVE DISEASES” (Delaware State University, priority 2022, published 2026)
